{"source": "patent US20250345394A1", "about": "“HAIR-GROWING OR HAIR-FOSTERING AGENT BASED ON KERATIN FINE PARTICLES” (MYQTECH INC., priority 2022, published 2025)", "system": "C57BL/6 mice", "experiment": "Hair growing effect on mice (topical application to shaved dorsal region)", "assay_type": "in vivo", "settings": "1% topically every day, male C57BL/6 mice", "method": "In the present example, the hair growing effect of keratin microparticles on mice was investigated. The experiment was approved by Institutional Animal Care and Use Committee, University of Tsukuba (No. 17-060), and the procedure was carried out in conformity with the “Guiding principles for the care and use of animals in the field of physiological sciences” approved by the board of Physiological Society of Japan.\nSix-week-old male C57BL/6 mice (Charles River Japan Inc.) were kept individually in a cage. acclimated for 1 week, and then randomly assigned to experiment groups (each group n=5) of a 1% Minoxidil treated group, a 1% keratin treated group, a 1% keratin microparticles treated group, and a milli-Q water treated group (control group). The mice were anesthetized with Isoflurane (Wako Pure Chemical Industries, Ltd.) and then telogen hair at the dorsal region of the mice was shaved using a hair clipper to induce the growth phase. […]\nIn the end of treatment period, the mice were slaughtered by cervical dislocation. […] Using ImageJ processing program (National Institutes of Health, Bethesda, USA), the hair regrowth at the treated area was measured."}
{"molecule": "Nc1cc(N2CCCCC2)nc(N)[n+]1[O-]", "note": "[Minoxidil]", "values": [{"measurement": "time of hair regrowth phenotype", "result": "~10", "unit": "day after application"}]}
